Measured values reported in ChEMBL document CHEMBL1201862, “PubChem BioAssay data set” (2004).
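96-well plates; 48 h exposure; 5 concentrations. Endpoints by linear interpolation between flanking doses. Not reached: highest tested concentration assigned. Here, GI50 denotes the concentration required for 50% inhibition of growth.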 Active and inactive are the calls of the source. No stated cut-off is given here; in the data, active = GI50 up to about 1.1 µM and inactive = higher.

Key:
Assay in all cases: inhibition of tumour cell growth, NCI panel, 48 h
A498 = system: A498
CCRF-CEM = system: CCRF-CEM
COLO 205 = system: COLO 205
DU-145 = system: DU-145
HCT-15 = system: HCT-15
HL-60 = system: HL-60
HOP-62 = system: HOP-62
IGROV-1 = system: IGROV-1
KM12 = system: KM12
LOX IMVI = system: LOX IMVI
MDA-MB-435 = system: MDA-MB-435
Malme-3M = system: Malme-3M
OVCAR-3 = system: OVCAR-3
RXF 393 = system: RXF 393
SF-268 = system: SF-268
SK-MEL-5 = system: SK-MEL-5
SN12C = system: SN12C
T47D = system: T47D
U-251 = system: U-251
UO-31 = system: UO-31

Compound: COc1ccc(-c2c3c(n(C4OC(CO)C(O)C(O)C4O)c(=S)c2C#N)CC(C)(C)CC3=O)cc1 (stereo not given)
- GI50 (A498): > 100 µM (inactive)
- GI50 (CCRF-CEM): > 100 µM (inactive)
- GI50 (COLO 205): > 100 µM (inactive)
- GI50 (DU-145): > 100 µM (inactive)
- GI50 (HCT-15): > 100 µM
- GI50 (HL-60): > 100 µM (inactive)
- GI50 (HOP-62): > 100 µM (inactive)
- GI50 (IGROV-1): > 100 µM (inactive)
- GI50 (KM12): > 100 µM (inactive)
- GI50 (LOX IMVI): > 100 µM (inactive)
- GI50 (MDA-MB-435): > 100 µM (inactive)
- GI50 (Malme-3M): > 100 µM (inactive)
- GI50 (OVCAR-3): > 100 µM (inactive)
- GI50 (RXF 393): > 100 µM (inactive)
- GI50 (SF-268): > 100 µM (inactive)
- GI50 (SK-MEL-5): > 100 µM (inactive)
- GI50 (SN12C): > 100 µM (inactive)
- GI50 (T47D): 13.8 µM (inactive)
- GI50 (U-251): > 100 µM (inactive)
- GI50 (UO-31): > 100 µM (inactive)

Compound: C=C1C(=O)O[C@@H]2C[C@]3(C)CC[C@]4(C)[C@H](CC[C@@H]5[C@@]6(C)CCC(=O)C(C)(C)[C@@H]6CC[C@]54C)[C@H]3[C@H]12 [OCHRACEOLIDE A]
- GI50 (A498): 21 µM (inactive)
- GI50 (CCRF-CEM): 2.43 µM (inactive)
- GI50 (COLO 205): 7.19 µM (inactive)
- GI50 (DU-145): 17.9 µM (inactive)
- GI50 (HCT-15): 12.5 µM
- GI50 (HL-60): 1.63 µM (inactive)
- GI50 (HOP-62): 23.5 µM (inactive)
- GI50 (IGROV-1): 18.7 µM (inactive)
- GI50 (KM12): 19.2 µM (inactive)
- GI50 (LOX IMVI): 15.2 µM (inactive)
- GI50 (MDA-MB-435): 11.2 µM (inactive)
- GI50 (Malme-3M): 15.8 µM (inactive)
- GI50 (OVCAR-3): 17.3 µM (inactive)
- GI50 (RXF 393): 16.6 µM (inactive)
- GI50 (SF-268): 22.2 µM (inactive)
- GI50 (SK-MEL-5): 12.5 µM (inactive)
- GI50 (SN12C): 17.5 µM (inactive)
- GI50 (T47D): 10.6 µM (inactive)
- GI50 (U-251): 19 µM (inactive)
- GI50 (UO-31): 14.8 µM (inactive)

Compound: COC(=O)CCc1ccc2c(c1)CC1(C2)Cc2ccc3c(c2C1)CCC3 (stereo not given)
- GI50 (A498): > 100 µM (inactive)
- GI50 (CCRF-CEM): 61.7 µM (inactive)
- GI50 (COLO 205): 80.4 µM (inactive)
- GI50 (DU-145): 70 µM (inactive)
- GI50 (HCT-15): 59.2 µM
- GI50 (HL-60): 30.3 µM (inactive)
- GI50 (HOP-62): > 100 µM (inactive)
- GI50 (IGROV-1): > 100 µM (inactive)
- GI50 (KM12): 39.3 µM (inactive)
- GI50 (LOX IMVI): > 100 µM (inactive)
- GI50 (MDA-MB-435): 38.1 µM (inactive)
- GI50 (Malme-3M): > 100 µM (inactive)
- GI50 (OVCAR-3): > 100 µM (inactive)
- GI50 (RXF 393): 49.1 µM (inactive)
- GI50 (SF-268): > 100 µM (inactive)
- GI50 (SK-MEL-5): 34.4 µM (inactive)
- GI50 (SN12C): 80 µM (inactive)
- GI50 (T47D): 18.8 µM (inactive)
- GI50 (U-251): > 100 µM (inactive)
- GI50 (UO-31): 32.4 µM (inactive)

Compound: Clc1ccc2c(c1)N(CCCN1CCCC13CCCCC3)c1ccccc1S2
- GI50 (A498): 16 µM (inactive)
- GI50 (CCRF-CEM): 4.06 µM (inactive)
- GI50 (COLO 205): > 39.2 µM (inactive)
- GI50 (DU-145): 16.6 µM (inactive)
- GI50 (HCT-15): 17.1 µM
- GI50 (HL-60): 0.152 µM (active)
- GI50 (HOP-62): 16.3 µM (inactive)
- GI50 (IGROV-1): 12.3 µM (inactive)
- GI50 (KM12): 13.8 µM (inactive)
- GI50 (LOX IMVI): 12.4 µM (inactive)
- GI50 (MDA-MB-435): 14.2 µM (inactive)
- GI50 (Malme-3M): 14.2 µM (inactive)
- GI50 (OVCAR-3): 14.1 µM (inactive)
- GI50 (RXF 393): 5.93 µM (inactive)
- GI50 (SF-268): 18.8 µM (inactive)
- GI50 (SK-MEL-5): > 41.9 µM (inactive)
- GI50 (SN12C): 13.4 µM (inactive)
- GI50 (T47D): 11.9 µM (inactive)
- GI50 (U-251): 10.2 µM (inactive)
- GI50 (UO-31): 8.38 µM (inactive)

Compound: CC1=CC2(O)OC3(CC2=C(C)C)C(C)CCC13 (stereo not given)
- GI50 (A498): > 100 µM (inactive)
- GI50 (CCRF-CEM): > 100 µM (inactive)
- GI50 (COLO 205): > 100 µM (inactive)
- GI50 (DU-145): > 100 µM (inactive)
- GI50 (HCT-15): > 100 µM
- GI50 (HL-60): > 100 µM (inactive)
- GI50 (HOP-62): > 100 µM (inactive)
- GI50 (IGROV-1): > 100 µM (inactive)
- GI50 (KM12): > 100 µM (inactive)
- GI50 (LOX IMVI): > 100 µM (inactive)
- GI50 (MDA-MB-435): > 100 µM (inactive)
- GI50 (Malme-3M): > 100 µM (inactive)
- GI50 (OVCAR-3): > 100 µM (inactive)
- GI50 (RXF 393): > 100 µM (inactive)
- GI50 (SF-268): > 100 µM (inactive)
- GI50 (SK-MEL-5): > 100 µM (inactive)
- GI50 (SN12C): > 100 µM (inactive)
- GI50 (T47D): > 100 µM (inactive)
- GI50 (U-251): > 100 µM (inactive)
- GI50 (UO-31): 44.4 µM (inactive)

Compound: Cc1ccc(/N=C2/SC(c3ccc(C)cc3)(c3ccc(C)cc3)c3ccccc32)cc1
- GI50 (A498): > 100 µM (inactive)
- GI50 (CCRF-CEM): > 100 µM (inactive)
- GI50 (COLO 205): > 100 µM (inactive)
- GI50 (DU-145): > 100 µM (inactive)
- GI50 (HCT-15): > 100 µM
- GI50 (HL-60): > 100 µM (inactive)
- GI50 (HOP-62): > 100 µM (inactive)
- GI50 (IGROV-1): > 100 µM (inactive)
- GI50 (KM12): > 100 µM (inactive)
- GI50 (LOX IMVI): > 100 µM (inactive)
- GI50 (MDA-MB-435): > 100 µM (inactive)
- GI50 (Malme-3M): > 100 µM (inactive)
- GI50 (OVCAR-3): > 100 µM (inactive)
- GI50 (RXF 393): > 100 µM (inactive)
- GI50 (SF-268): > 100 µM (inactive)
- GI50 (SK-MEL-5): > 100 µM (inactive)
- GI50 (SN12C): > 100 µM (inactive)
- GI50 (T47D): > 100 µM (inactive)
- GI50 (U-251): > 100 µM (inactive)
- GI50 (UO-31): > 100 µM (inactive)

Compound: COc1ccc2nc(N/N=C/C(C)=N/Nc3cc(C)c4cc(OC)ccc4n3)cc(C)c2c1
- GI50 (A498): > 68.2 µM (inactive)
- GI50 (CCRF-CEM): 2.47 µM (inactive)
- GI50 (COLO 205): 23.2 µM (inactive)
- GI50 (DU-145): 18.1 µM (inactive)
- GI50 (HCT-15): 9.75 µM
- GI50 (HL-60): 18.5 µM (inactive)
- GI50 (HOP-62): 28.6 µM (inactive)
- GI50 (IGROV-1): 21 µM (inactive)
- GI50 (KM12): 18.7 µM (inactive)
- GI50 (LOX IMVI): 22.6 µM (inactive)
- GI50 (MDA-MB-435): 29 µM (inactive)
- GI50 (Malme-3M): 50.9 µM (inactive)
- GI50 (OVCAR-3): 26.5 µM (inactive)
- GI50 (RXF 393): 39.9 µM (inactive)
- GI50 (SF-268): 25.6 µM (inactive)
- GI50 (SK-MEL-5): 26.5 µM (inactive)
- GI50 (SN12C): 23.9 µM (inactive)
- GI50 (T47D): 29.8 µM (inactive)
- GI50 (U-251): 16.2 µM (inactive)
- GI50 (UO-31): > 80.4 µM (inactive)

Compound: O=C1NN(c2ccccc2)C(=O)C2C3c4ccccc4C(c4ccccc43)C12 (stereo not given)
- GI50 (A498): 32.2 µM (inactive)
- GI50 (CCRF-CEM): 22.5 µM (inactive)
- GI50 (COLO 205): 78.2 µM (inactive)
- GI50 (DU-145): > 100 µM (inactive)
- GI50 (HCT-15): 89.1 µM
- GI50 (HL-60): > 10 µM (inactive)
- GI50 (HOP-62): 56.8 µM (inactive)
- GI50 (IGROV-1): > 100 µM (inactive)
- GI50 (KM12): > 100 µM (inactive)
- GI50 (LOX IMVI): > 100 µM (inactive)
- GI50 (MDA-MB-435): > 100 µM (inactive)
- GI50 (Malme-3M): 85.1 µM (inactive)
- GI50 (OVCAR-3): > 100 µM (inactive)
- GI50 (RXF 393): 41.1 µM (inactive)
- GI50 (SF-268): > 100 µM (inactive)
- GI50 (SK-MEL-5): > 100 µM (inactive)
- GI50 (SN12C): 77.1 µM (inactive)
- GI50 (T47D): 44.4 µM (inactive)
- GI50 (U-251): > 100 µM (inactive)
- GI50 (UO-31): > 100 µM (inactive)
